Several values for one entry are separate records, joined by “and”; a condition that tells them apart may be missing. Equal entries are not always repeated.
Assays:
[1] = tested on: PPAR signaling pathway genes, maternal liver; experiment: Maternal liver (GD18) PPAR gene array, fold induction versus control; oral dosing GD14-18; rows per gene in dose order 1, 3, 10, 30, 62.5, 125, 250, 500 mg/kg/d; assay type: in vivo, Sprague-Dawley rats
Description: (§1) A total of three blocks of 15 dams per block were dosed once daily from GD14–18 with either water vehicle (control) or HFPO-DA to evaluate fetal and maternal effects (Figure 1A). The first block of dams was dosed with control, 62.5, 125, 250, or 500mg/kg HFPO-DA ( n=3 dams for each). The second and third blocks of dams were dosed with control, 1, 3, 10, or 30mg/kg HFPO-DA ( n=3 per dose per block). Total sample sizes were n=9 for control, n=6 for 1, 3, 10, 30mg/kg , and n=3 for 62.5, 125, 250, and 500mg/kg HFPO-DA. In the first two blocks, spanning the entire dose range, we evaluated fetal testis testosterone production, fetal testis gene expression, fetal and maternal liver gene expression, fetal body weight, and maternal serum thyroid hormone and lipid concentrations. In the third block, encompassing the lower dose range utilized here, we collected fetal plasma for measuring HFPO-DA concentrations. Across all three blocks we evaluated maternal weight gain during dosing, reproductive output (number of fetuses and resorptions), maternal serum HFPO-DA concentration, and maternal liver weight at necropsy.
(§2) For the first two blocks, spanning the full dose range, late gestation (GD18) dams were euthanized by decapitation at ∼2h after the final oral dose [ ∼0830–1000 hours Eastern Standard Time (EST)]. Trunk blood was collected and serum isolated via centrifugation ( 10,000×g for 15 min at 4°C) in vacutainer tubes, transferred to 1.5-mL microcentrifuge tubes and stored at −80°C . Dam liver weight was recorded and a sample of liver tissue was collected into a polypropylene microcentrifuge tube containing 500μL TRIzol Reagent (Invitrogen) on ice. Fetuses were removed and two randomly selected fetuses per litter were weighed. Fetal testes were collected from all male pups with a single testis from the first three males used for determination of ex vivo testosterone production and the remaining testes were homogenized and preserved in TRIzol Reagent for gene expression analysis. The liver was collected from a single, randomly selected fetus per dam/litter for gene expression analysis and transferred to a polypropylene microcentrifuge tube containing 500μL TRIzol Reagent (Invitrogen) on ice. Both dam and fetal liver samples were individually homogenized using a Bullet Blender (Next Advance) with 1-mm zirconium oxide beads, transferred to clean tubes, and stored at −80°C prior to RNA extraction (see below). Ex vivo fetal testis testosterone production was measured as previously reported ([Wilson et al. 2004b]) except the radioimmunoassay (RIA) utilized here was supplied by ALPCO (Catalog No. 72-TESTO-CT2, ALPCO). Briefly, one testis was isolated from each of three separate male fetuses in each litter and incubated in a humidified atmosphere at 37°C for 3 h in 500μL of M-199 media (phenol red–free; Hazelton Biologics, Inc.) supplemented with 10% dextran-coated charcoal-stripped fetal bovine serum (Hyclone Laboratories) in 24-well plates under gentle agitation. After incubation, media were removed and stored in siliconized microcentrifuge tubes at −80°C until RIA analyses, which were performed according to manufacturer specifications.
Gene expression in fetal testes and fetal/maternal livers was assessed using reverse transcriptase real-time PCR of cDNA synthesized from RNA extracted from sample homogenates. RNA extraction was conducted according to TRIzol Reagent manufacturer specifications using chloroform and isopropanol. Following extraction, RNA was purified using the RNeasy Mini Kit (Catalog No. 74104; Qiagen). RNA concentration and purity (260:280 ratio ≥1.8 ) were determined with a NanoDrop 2000 spectrophotometer (Thermo Scientific). For the fetal testes, a 96-well gene array plate was previously custom designed to contain 89 target genes and 3 housekeeping genes, an intra-assay control, a genomic DNA control, a reverse transcriptase control, and a positive PCR control [see Table S1; SABioscience; ([Hannas et al. 2012])]. […]

[2] = tested on: pregnant Sprague-Dawley rats; experiment: Maternal and fetal effects of GD14-18 oral dosing (weights, reproductive output); assay type: in vivo
Description: as §1, §2
For the third block, dosed with the lower dose range ( 1–30mg/kg HFPO-DA), late gestation (GD18) dams were euthanized by decapitation ∼2h after the final dose, liver weight was recorded, and trunk blood was collected for serum isolation. Serum was isolated from trunk blood via centrifugation ( 10,000×g; 15 min; 4°C) using Becton Dickinson vacutainer tubes and stored in 1.5-mL siliconized microcentrifuge tubes at −80°C for future analyses. Fetuses were removed and fetal blood was collected from the jugular vein from all fetuses within a litter using heparinized glass capillary tubes. Blood was expelled from capillary tubes using fine-tip disposable transfer pipets into a microcentrifuge tube forming a single composite sample per litter. […]

## O=C(O)C(F)(OC(F)(F)C(F)(F)C(F)(F)F)C(F)(F)F (stereo not shown) [HFPO-DA, Hexafluoropropylene oxide dimer acid]
[1]; dose order
  Acox3: 1.3 fold and 0.9 fold and 1.2 fold and 1.1 fold and 1.0 fold
  Acsl1: 1.3 fold and 1.5 fold and 1.1 fold and 1.7 fold and 1.6 fold and 1.8 fold
  Acsl4: 1.0 fold and 0.7 fold and 0.9 fold and 1.3 fold and 1.2 fold
  Angptl4: 2.3 fold and 3.4 fold and 2.1 fold and 3.6 fold and 3.0 fold and 2.9 fold and 2.5 fold
  Apoa1: 0.9 fold and 1.0 fold and 0.7 fold
  Apoe: 1.2 fold and 0.8 fold and 0.9 fold and 0.7 fold
  Cd36: 0.8 fold and 1.2 fold and 0.9 fold and 1.0 fold and 1.1 fold
  Clu: 1.1 fold and 1.4 fold and 0.8 fold and 1.3 fold and 1.2 fold and 1.5 fold and 1.6 fold
  Creb1: 1.1 fold and 0.9 fold and 1.0 fold and 0.8 fold
  Crebbp: 1.3 fold and 0.9 fold and 1.0 fold
  Dgat1: 1.1 fold and 1.3 fold and 1.2 fold and 1.5 fold and 1.6 fold and 1.8 fold and 1.9 fold
  Ep300: 1.3 fold and 1.4 fold and 0.8 fold and 1.1 fold and 1.0 fold
  Etfdh: 1.2 fold and 1.6 fold and 1.4 fold and 1.5 fold
  Fabp5: 1.0 fold and 1.3 fold and 1.2 fold and 0.8 fold
  Fabp7: 2.0 fold and 1.1 fold and 1.9 fold and 1.8 fold and 1.3 fold and 1.7 fold
  Gk: 1.2 fold and 1.1 fold and 1.3 fold and 1.4 fold and 0.8 fold
  Hif1a: 1.2 fold and 1.0 fold and 1.1 fold and 1.3 fold
  Hspd1: 1.1 fold and 1.2 fold and 1.3 fold and 1.9 fold and 1.8 fold and 2.2 fold and 2.1 fold
  Ilk: 1.2 fold and 0.9 fold and 1.1 fold and 1.0 fold
  Klf10: 1.8 fold and 2.0 fold and 1.5 fold and 2.5 fold and 2.3 fold and 2.4 fold
  Lpin1: 1.2 fold and 1.4 fold and 0.8 fold and 1.1 fold and 1.0 fold and 0.9 fold
  Med1: 1.2 fold and 1.3 fold and 0.7 fold and 1.0 fold and 0.8 fold and 0.9 fold and 1.1 fold
  Ncoa3: 1.4 fold and 0.8 fold and 1.0 fold and 0.9 fold
  Ncoa6: 1.4 fold and 1.2 fold and 1.1 fold and 0.7 fold and 0.8 fold and 0.9 fold
  Nr1h3: 1.1 fold and 1.5 fold and 0.8 fold and 1.6 fold and 1.3 fold
  Pdpk1: 0.9 fold and 1.0 fold and 0.8 fold and 1.1 fold
  Pltp: 1.2 fold and 0.7 fold and 0.9 fold and 1.4 fold and 1.1 fold and 1.0 fold
  Ppara: 0.8 fold and 0.7 fold and 0.6 fold and 1.0 fold and 0.9 fold and 1.1 fold
  Ppargc1b: 1.1 fold and 1.3 fold and 0.9 fold and 0.8 fold and 0.7 fold
  Pprc1: 1.2 fold and 1.0 fold and 1.4 fold and 1.5 fold
  Pten: 0.8 fold and 1.1 fold and 0.9 fold and 1.0 fold
  Pyy: 1.6 fold and 1.3 fold and 1.1 fold and 1.2 fold and 2.0 fold and 2.1 fold and 1.8 fold
  Rxra: 1.2 fold and 1.4 fold and 0.7 fold and 1.0 fold and 1.1 fold
  Rxrb: 1.5 fold and 1.4 fold and 0.9 fold and 1.1 fold and 0.8 fold and 1.0 fold
  Rxrg: 1.5 fold and 1.6 fold and 1.1 fold and 1.7 fold and 1.3 fold
  Sirt1: 1.0 fold and 1.1 fold and 0.8 fold and 0.9 fold
  Slc27a1: 1.5 fold and 1.6 fold and 0.9 fold and 1.4 fold and 1.1 fold and 1.0 fold and 1.3 fold
  Slc27a2: 1.3 fold and 1.8 fold and 2.1 fold and 2.2 fold and 2.3 fold
  Slc27a4: 1.3 fold and 1.5 fold and 0.8 fold and 1.0 fold and 1.1 fold and 0.9 fold
  Tgs1: 0.8 fold and 0.9 fold and 0.7 fold and 1.1 fold
[1]; rat, in vivo
  number of up-regulated genes shared by maternal and fetal livers: 16 genes
[2]; 1-500 mg/kg
  numbers of live pups, resorptions, fetal body weight compared with controls: no significant differences
[2]; 1-500 mg/kg/d
  Dam BW GD18: 378.6 ± 19.1 g and 364.1 ± 15.6 g and 371.5 ± 11.4 g and 354.3 ± 12.4 g and 366.2 ± 9.9 g and 346.7 ± 5.5 g and 350.2 ± 6.0 g and 369.8 ± 15.1 g
  No. fetuses: 12.3 ± 1.0 and 13.3 ± 0.6 and 13.2 ± 0.5 and 13.5 ± 0.4 and 12.7 ± 0.9 and 14.3 ± 0.3 and 13.7 ± 1.3 and 14.7 ± 0.3
[2]; GD14-18 dosing window
  maternal body weight gain compared with controls: significantly less body weight gain at the 250- and 500-mg/kg dose levels
[2]; GD18, 1-500 mg/kg/d
  Dam liver wt: 15.8 ± 0.7 g and 16.7 ± 1.1 g and 16.5 ± 0.5 g and 17.2 ± 0.5 g and 17.8 ± 0.7 g and 19.1 ± 0.6 g and 19.6 ± 0.3 g and 19.2 ± 0.6 g
  Fetal BW: 908.7 ± 27.0 mg and 816.7 ± 24.2 mg and 841.0 ± 38.4 mg and 842.2 ± 50.5 mg and 863.7 ± 31.7 mg and 841.8 ± 46.7 mg and 889.1 ± 26.9 mg and 808.2 ± 88.9 mg
[2]; dose order 1, 3, 10, 30, 62.5, 125, 250, 500 mg/kg/d
  Dam BW GD14: 337.0 ± 12.9 g and 341.6 ± 14.1 g and 330.8 ± 13.4 g and 338.0 ± 11.5 g and 320.9 ± 8.7 g and 330.6 ± 8.8 g and 325.8 ± 3.7 g and 339.1 ± 10.5 g
[2]; oral GD14-18
  dose with higher maternal liver weights: ≥ 62.5 mg/kg

Reference: article PMC6768323, “Adverse Maternal, Fetal, and Postnatal Effects of Hexafluoropropylene Oxide Dimer Acid (GenX) from Oral Gestational Exposure in Sprague-Dawley Rats” (Environmental Health Perspectives, 2019)
